# Where a SMILES comes first, the peptide text is derived from it. [ ]: non-standard residue; d: D form. Hyp = O=C(O)[C@@H]1C[C@@H](O)CN1
# Assays:
# [1] = target: T1, ACE (from rabbit lung, EC 3.4.15.1) (Oryctolagus cuniculus, UniProt P12822); experiment: ACE-inhibitory activity assay (FAPGG substrate, spectrophotometric); format: biochemical; conditions: synthetic peptides; FAPGG 1 mmol/L, 80 mM HEPES, 0.3 M NaCl, pH 8.3, 37 °C; triplicate, sigmoidal dose–response fit; read-out: IC₅₀ ACE inhibition
# T1 construct: ACE (from rabbit lung, EC 3.4.15.1); purchased Sigma-Aldrich Co. (St. Louis, MO, USA); host or cells: rabbit lung tissue
# T1 sequence (P12822 34-1310): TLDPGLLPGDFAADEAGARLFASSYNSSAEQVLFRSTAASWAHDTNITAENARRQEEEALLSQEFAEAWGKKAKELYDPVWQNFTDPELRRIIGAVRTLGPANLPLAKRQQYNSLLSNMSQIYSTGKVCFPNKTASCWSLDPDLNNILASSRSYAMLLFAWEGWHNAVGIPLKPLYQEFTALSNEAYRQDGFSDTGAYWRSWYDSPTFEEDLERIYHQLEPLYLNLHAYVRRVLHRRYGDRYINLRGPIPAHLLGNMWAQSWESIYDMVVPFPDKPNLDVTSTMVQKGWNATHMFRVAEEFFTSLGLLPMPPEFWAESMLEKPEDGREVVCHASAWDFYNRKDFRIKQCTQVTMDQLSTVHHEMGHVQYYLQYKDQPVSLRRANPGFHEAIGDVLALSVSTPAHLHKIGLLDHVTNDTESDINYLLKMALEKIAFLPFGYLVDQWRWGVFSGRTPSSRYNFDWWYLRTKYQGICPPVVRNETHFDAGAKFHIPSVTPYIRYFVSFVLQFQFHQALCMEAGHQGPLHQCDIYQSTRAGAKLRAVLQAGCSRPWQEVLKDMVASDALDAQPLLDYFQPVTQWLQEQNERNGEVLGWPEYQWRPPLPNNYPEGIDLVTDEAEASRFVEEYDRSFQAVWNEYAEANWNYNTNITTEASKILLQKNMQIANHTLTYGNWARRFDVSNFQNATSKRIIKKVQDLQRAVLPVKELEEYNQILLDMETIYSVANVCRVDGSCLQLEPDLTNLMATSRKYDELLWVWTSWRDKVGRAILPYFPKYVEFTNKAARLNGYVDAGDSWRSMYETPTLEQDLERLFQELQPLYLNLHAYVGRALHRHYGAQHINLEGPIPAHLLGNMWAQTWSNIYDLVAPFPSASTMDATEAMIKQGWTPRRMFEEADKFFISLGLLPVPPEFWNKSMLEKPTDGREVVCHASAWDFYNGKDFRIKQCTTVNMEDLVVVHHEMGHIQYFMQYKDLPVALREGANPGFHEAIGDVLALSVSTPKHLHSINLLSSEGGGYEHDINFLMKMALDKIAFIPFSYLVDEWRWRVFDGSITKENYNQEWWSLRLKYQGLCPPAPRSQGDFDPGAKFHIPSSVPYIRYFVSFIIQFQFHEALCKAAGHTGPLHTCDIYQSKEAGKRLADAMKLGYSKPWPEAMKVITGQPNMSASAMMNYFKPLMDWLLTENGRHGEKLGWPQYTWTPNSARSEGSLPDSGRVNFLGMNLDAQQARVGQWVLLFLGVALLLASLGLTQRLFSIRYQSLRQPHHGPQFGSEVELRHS
# Experimental: All other chemicals were of analytical grade.
# All assays were conducted in triplicate.
# BALB/c mice [2] = experiment: 90-day oral safety: mortality, clinical signs, body weight; format: in vivo; conditions: 50 mg/kg/day oral, 90 days, male and female
# Experimental: (§1) A total of 40 healthy 7-week-old BALB/c mice (20 males and 20 non-pregnant females), with body weights within ±15% of the cohort mean, were obtained from Yangzhou University. All animals underwent a 7-day acclimation period under specific pathogen-free conditions prior to the experiment. Mice were housed under standard laboratory conditions: ambient temperature of 20–26 °C, relative humidity of 40–70%, and a 12 h light/dark cycle. General appearance, behavior, food intake, and body weight were monitored daily throughout the study. To evaluate the potential subchronic toxicity of the synthetic GA-Hyp-GAR peptide, a 90-day oral administration study was conducted. Mice were randomly divided into two groups (n = 10 males and 10 females per group): a normal group and a GA-Hyp-GAR-treated group receiving 50 mg/kg/day via daily intragastric gavage. The normal group received an equivalent volume of ultrapure water via the same route. After 90 consecutive days of treatment, all animals were anesthetized and euthanized 24 h after the final dose. […] Organ coefficients (organ weight/body weight × 100%) were calculated to assess potential physiological or pathological effects associated with long-term GA-Hyp-GAR exposure. […]
# BALB/c mice [3] = experiment: 90-day oral safety: hematological parameters; format: in vivo; set-up: Red Cell Distribution Width—CV: unit not given here; conditions: 50 mg/kg/day oral, 90 days
# Experimental: (§2) A total of 40 healthy 7-week-old BALB/c mice (20 males and 20 non-pregnant females), with body weights within ±15% of the cohort mean, were obtained from Yangzhou University. All animals underwent a 7-day acclimation period under specific pathogen-free conditions prior to the experiment. Mice were housed under standard laboratory conditions: ambient temperature of 20–26 °C, relative humidity of 40–70%, and a 12 h light/dark cycle. General appearance, behavior, food intake, and body weight were monitored daily throughout the study. To evaluate the potential subchronic toxicity of the synthetic GA-Hyp-GAR peptide, a 90-day oral administration study was conducted. Mice were randomly divided into two groups (n = 10 males and 10 females per group): a normal group and a GA-Hyp-GAR-treated group receiving 50 mg/kg/day via daily intragastric gavage. The normal group received an equivalent volume of ultrapure water via the same route. After 90 consecutive days of treatment, all animals were anesthetized and euthanized 24 h after the final dose. Blood samples were collected via cardiac puncture for hematological and serum biochemical analyses, performed using a Hitachi 3500 fully automated biochemical analyzer (Hitachi High-Tech Science Corp., Tokyo, Japan). Major organs—including the heart, liver, spleen, lungs, and kidneys—were excised, blotted dry, and weighed. Organ coefficients (organ weight/body weight × 100%) were calculated to assess potential physiological or pathological effects associated with long-term GA-Hyp-GAR exposure. Tissues were fixed in 4% paraformaldehyde, embedded in paraffin, sectioned, and stained with hematoxylin and eosin for histopathological evaluation. All animal experiments were conducted in accordance with the ethical guidelines of the Animal Ethics Committee of Nanjing Agricultural University, which approved the study protocol (Protocol No. NJAU-20250120-35).
# BALB/c mice [4] = experiment: 90-day oral safety: serum biochemical parameters; format: in vivo; conditions: 50 mg/kg/day oral, 90 days
# Experimental: as §2
# BALB/c mice [5] = experiment: 90-day oral safety: organ coefficients; format: in vivo; conditions: 50 mg/kg/day oral, 90 days; liver, kidneys, spleen, lungs, heart
# Experimental: as §1
# BALB/c mice [6] = experiment: 90-day oral safety: histopathology (H&E); format: in vivo; conditions: 50 mg/kg/day oral, 90 days, liver, kidneys, spleen, lungs, heart
# Experimental: as §1
# angiotensin II = experiment: Angiotensin II level in SHRs (ELISA); format: in vivo, spontaneously hypertensive rats (SHRs); conditions: captopril 12 mg/kg oral, n = 6
# Excerpt: (§3) Formic acid (≥99%, LC-MS grade), 4-(2-hydroxyethyl) piperazine-1-ethanesulfonic acid (HEPES, ≥99%, ACS grade), ACE (from rabbit lung, EC 3.4.15.1), acetonitrile (ACN, ≥99%, LC-MS grade), and N-[3-(2-Furyl) acryloyl]-Phe-Gly-Gly (FAPGG, ≥99%, ACS grade) were obtained from Sigma-Aldrich Co. (St. Louis, MO, USA). An enzyme-linked immunosorbent assay (ELISA) kit for AngII (catalog no. D731188-0048) was purchased from Sangon Biotech (Shanghai, China). ELISA kits for endothelial nitric oxide synthase (eNOS, catalog no. JL21190-48T) and BK (catalog no. JL21045-48T) were obtained from JONLN Biotechnology Co., Ltd. (Shanghai, China). Nitric Oxide (NO) assay kit (catalog no. A013-2-1) was purchased from Nanjing Jiancheng Bioengineering Institute (Nanjing, Jiangsu, China). All other chemicals were of analytical grade. […]
# (§4) Systolic blood pressure (SBP) was measured using a non-invasive blood pressure monitoring system (BP-2000, Softron Co., Tokyo, Japan) at baseline (0 h) and at 2, 4, 6, 8, and 12 h after administration to evaluate the antihypertensive effects of the test peptides, following the method described by Kurita. The levels of AngII, eNOS, and BK were measured using commercial ELISA kits, while NO levels were determined using the Microwell plate method with a specialized assay kit.
# [7] = test system: endothelial nitric oxide synthase (eNOS); experiment: Endothelial nitric oxide synthase level in SHRs (ELISA); format: in vivo, spontaneously hypertensive rats (SHRs); conditions: oral, vs model group
# Excerpt: as §3, §4
# nitric oxide (NO) = experiment: Nitric oxide level in SHRs (assay kit); format: in vivo, spontaneously hypertensive rats (SHRs); conditions: oral, vs model group
# Excerpt: as §3, §4
smiles,measurement,setting,value
"C[C@H](NC(=O)CNC(=O)[C@@H]1C[C@@H](O)CN1C(=O)[C@H](C)NC(=O)CN)C(=O)N[C@@H](CCCNC(=N)N)C(=O)O [GA-Hyp-GAR, Gly-Ala-hydroxyproline-Gly-Ala-Arg] (H-GA[Hyp]GAR-OH)",IC50,[1],4 µM
same,body weight,BALB/c mice [2],Body weight increased steadily in all groups over the study period
same,mortality and signs of toxicity,BALB/c mice [2],no mortality or signs of toxicity were observed
same,hematological parameters in words,BALB/c mice [3]; vs control,no statistically significant differences (p > 0.05) between the treated and control groups in key hematological parameters
same,Plateletcrit,"BALB/c mice [3]; normal 0.16 ± 0.27, p >0.9999",0.16 ± 0.26%
same,Mean Platelet Volume,"BALB/c mice [3]; normal 2.05 ± 3.45, p 0.9798",2.09 ± 3.52 fL
same,Platelet Distribution Width,"BALB/c mice [3]; normal 2.91 ± 4.95, p 0.9364",3.09 ± 5.00 fL
same,Platelet Large Cell Ratio,"BALB/c mice [3]; normal 3.62 ± 6.29, p 0.9916",3.65 ± 6.26%
same,White Blood Cells,"BALB/c mice [3]; normal 4.28 ± 1.72, p 0.3610",3.66 ± 1.19 ×10⁹/L
same,Red Blood Cells,"BALB/c mice [3]; normal 10.71 ± 0.83, p 0.2451",11.13 ± 0.73 ×10^12/L
same,Mean Corpuscular Hemoglobin,"BALB/c mice [3]; normal 15.65 ± 0.32, p 0.7101",15.70 ± 0.27 pg
same,Red Cell Distribution Width—CV,"BALB/c mice [3]; normal 26.58 ± 1.94, p 0.4260",25.95 ± 1.49
same,Red Cell Distribution Width—SD,"BALB/c mice [3]; normal 32.81 ± 11.68, p 0.8517",31.99 ± 7.11 fL
same,Hemoglobin,"BALB/c mice [3]; normal 167.60 ± 13.10, p 0.1978",174.70 ± 10.50 g/L
same,Mean Corpuscular Hemoglobin Concentration,"BALB/c mice [3]; normal 341.80 ± 15.10, p 0.7101",355.90 ± 5.50 g/L
same,Platelet Count,"BALB/c mice [3]; normal 675.50 ± 200.50, p 0.9198",683.40 ± 140.00 ×10⁹/L
same,serum biochemical markers of hepatic and renal function in words,BALB/c mice [4]; vs normal group,no significant differences (p > 0.05) between the treated and normal groups in markers of hepatic function
same,Triglycerides,"BALB/c mice [4]; normal 1.94 ± 0.40, p 0.0526",2.35 ± 0.48 mmol/L
same,Total Cholesterol,"BALB/c mice [4]; normal 2.47 ± 0.23, p 0.1796",2.32 ± 0.25 mmol/L
same,Aspartate Aminotransferase,"BALB/c mice [4]; normal 2.48 ± 1.03, p 0.9294",2.44 ± 0.96 µkat/L
same,Alkaline Phosphatase,"BALB/c mice [4]; normal 3.32 ± 0.65, p 0.2065",2.99 ± 0.46 µkat/L
same,Glucose,"BALB/c mice [4]; normal 5.69 ± 3.38, p 0.1654",7.79 ± 3.11 mmol/L
same,Blood Urea Nitrogen,"BALB/c mice [4]; normal 7.81 ± 1.53, p 0.6237",8.13 ± 1.33 mmol/L
same,Creatinine,"BALB/c mice [4]; normal 14.70 ± 5.80, p 0.2390",18.13 ± 6.76 µmol/L
same,Albumin,"BALB/c mice [4]; normal 35.24 ± 1.32, p 0.5021",35.60 ± 1.01 g/L
same,Total Protein,"BALB/c mice [4]; normal 58.21 ± 3.77, p 0.9711",58.16 ± 2.09 g/L
same,Alanine Aminotransferase,"BALB/c mice [4]; normal 684.30 ± 288.39, p 0.8986",701.81 ± 316.56 nkat/L
same,organ coefficients,BALB/c mice [5],organ coefficients did not differ significantly between the GA-Hyp-GAR-treated and normal groups (p > 0.05)
same,histopathology of major organs,BALB/c mice [6],no observable pathological changes in any of the examined organs
"C[C@H](NC(=O)CNC(=O)[C@@H]1C[C@@H](O)CN1)C(=O)N[C@@H](CCCNC(=N)N)C(=O)O [Hyp-GAR, Hydroxyproline-Gly-Ala-Arg] (H-[Hyp]GAR-OH)",IC50,[1],12.2 µM
C[C@H](CS)C(=O)N1CCC[C@H]1C(=O)O [captopril],AngII concentration,angiotensin II,220.16 ± 31.67 pg/mL
same,eNOS levels in words,[7],significantly restored both eNOS and NO levels
same,NO levels in words,nitric oxide (NO),significantly restored both eNOS and NO levels
